Reference: patent US20060025449A1, “Use of N-substituted imino sugars for appetite suppression” (priority 2004, published 2006)
“Also recorded” adds a separate entry of the source.

Columns and labels:
lean control mouse = test: Single intracerebroventricular (ICV) injection, food intake and weight change after 24 hours; assay type: in vivo; conditions: 2 nmol ICV, 24 hours
Procedure: To investigate a central anorexigenic mechanism for weight loss in mice treated with NB-DNJ, single intracerebro-ventricular (ICV) injections were performed. The mice were assessed for food intake and weight change. Mice were anesthetized with isofluorane (4%) delivered by a vaporiser. Upon achievement of a surgical plane of anaesthesia, the animal was transferred to and secured in a Kopf small animal ultra precise stereotaxic instrument (David Kopf Instruments, Tujunga, Calif., USA) fitted with rat ear bars, mouse adaptor and mouse anaesthesia mask. A small amount of lignocaine local anaesthetic gel was applied to the ear bars to reduce any post-operative discomfort. For the remainder of the procedure, anaesthesia was maintained with 2.5% isofluorane. Lacrilube (Allergan Ltd, High Wycombe, UK) was applied to the mouse's eyes and a subcutaneous injection of the non-steroidal anti-inflammatory drug, Rimadyl (Pfizer, Sandwich, Kent, UK) was given for post-operative analgesia. For ICV injections, a small scalpel incision was made along the midline of the scalp from above the eyes to the occiput. A small hole was drilled in the skull, 1 mm lateral and 0.34 mm posterior to Bregma. 1 μl solution was slowly infused into the lateral ventricle at a depth of 2.25 mm, via a glass needle pipette pulled to a thickness of less than 100 microns at the tip. Mice were injected with 2 nmol compound (NB-DNJ, NB-DGJ or 2-deoxy glucose) in isotonic saline vehicle which was injected into controls. The incision was then closed using VetBond acrylic suture fluid (3M Animal Care Products, St Paul, Minn., USA). The whole procedure from induction of anaesthesia to full recovery lasted less than seven minutes. Mice were allowed free access to a pre-weighed quantity of RM1 pellet diet with water provided ad libitum. 24 hours following ICV injection the mice and remaining diet were weighed. To confirm a central anorectic effect of NB-DNJ, 2 nmol NB-DNJ, NB-DGJ and 2 deoxyglucose were injected directly into the lateral cerebral ventricle of lean control mouse brain (approximately 100 μM final cerebro-ventricular concentration). Mice injected with both saline vehicle and NB-DGJ ate a normal quantity of pellet diet in the following 24 hours (FIG. 9), approximately 5% less in this experiment than that seen in control mice in FIG. 7 (not statistically significant). In contrast, NB-DNJ-injected mice ate 20% less (p<0.02 for both saline and NB-DGJ) and 2-deoxy-glucose injections caused a 10% increase in feeding. 2-deoxy-glucose is a mild appetite stimulant in the short-term. Tsutsui et al., Physiol Behav 31, 493-502. In contrast, NB-DGJ had no effect, as expected.

C57B1/6 mice = test: Effect of imino sugars admixed with diet on growth of normal control mice; assay type: in vivo, mouse; conditions: 2400 mg/kg/day in diet
Procedure: Control C57B1/6 and C57BL/6O1aHsd-Lep ob mice were obtained from Harlan, UK at five weeks of age. The mice were housed under standard non-sterile conditions and fed a diet of mouse chow pelleted or expanded ground RM1 diet (SDS Ltd, Witham, Essex) with water available ad libitum. For dietary treatment of the mice with NB-DNJ or NB-DGJ, the diet and compound were admixed thoroughly as dry solids, stored at room temperature and used within 7 days. Unless indicated otherwise, mice were treated with a dose of 2400 mg/kg body weight per day, assuming an intake of around 5 g diet/day. Mice were maintained on diet with or without compound for up to six months of age and were weighed at regular intervals during the course of the experiment (see figure legends for group sizes and further experimental details). To study the effect of compound on obese mice, three groups (n=5) of ob/ob mice were monitored from five weeks of age. One group acted as control and were fed ground RM1 diet. At 6 weeks of age, the second group was started on NB-DNJ in the diet, whilst the third group started drug treatment at 12 weeks of age. All mice were then monitored for up to six months of age. […] In the first week of treatment, mice with NB-DNJ in their diet lost about 10% of their total body mass. Over the course of the following weeks, their weight stabilises. By 5 weeks of treatment they weighed 25% less than the controls. They then started to gain weight. However, after 10 weeks they remained 20% less in mass when compared with the age and sex-matched control group.

control lean mice = test: ICV mini-pump implants, long-term intracerebro-ventricular delivery; assay type: in vivo, mouse; conditions: ICV mini-pump 500 mM, first 24 hours
Procedure: FIG. 11. Control lean mice (n=5 in each group) had icv minipumps (50 mM imino sugar) implanted. Body weight was the monitored at regular intervals over three weeks. See example 7 for further experimental details. The effect of long-term intracerebro-ventricular delivery of imino sugars was determined by the implantation of Alzet mini-osmotic pumps (model 2004, DURECT Corporation, CA, USA) together with the brain infusion kit II which features a high stability low profile cannula. The mini-pumps were loaded with 0.24 ml imino sugar or saline vehicle. The indwelling 28 gauge stainless steel cannula was cut to a length of 2.25 mm. Mice were anaesthetised as for the ICV injections and underwent similar surgical procedures throughout. After drilling a small hole in the cranium at the midline, 2 mm posterior to Bregma, the mini-pump was positioned subcutaneously in the animal's flank and the cannula was implanted. This position and depth ensured delivery to the third cerebral ventricle. The implant was secured to the cranium using VetBond acrylic suture fluid, which was also used to close the surgical wound. The whole procedure lasted less than 9 minutes and mice were fully conscious and recovered within three minutes. For concentration of imino sugar in mini-pumps see figure legends.

O=CC[C@@H](O)[C@H](O)[C@H](O)CO [2-deoxy-glucose, 2-deoxyglucose]
increase in feeding (lean control mouse): 10%

CCCCN1C[C@H](O)[C@@H](O)[C@@H](O)[C@H]1CO [NB-DGJ]
effect on growth / body weight (C57B1/6 mice): did not lose weight; also recorded: no discernible effect | effect on dietary intake (control lean mice): no statistically significant effect | effect on weight change (control lean mice): no statistically significant effect | effect on food intake (lean control mouse): no effect | ate less than control mice of FIG. 7 (lean control mouse; not statistically significant): approximately 5%
